Reference: ChEMBL document CHEMBL1201862, “PubChem BioAssay data set” (2004)
Activity calls are given as the source filed them.

How the values were obtained:
Bcl-2-related protein A1 [1] = target: T1, Bcl-2-related protein A1 (Mus musculus, UniProt Q07440); assay: Bfl-1 binding inhibitors, SAR follow-up, biochemical, fluorescence polarization (AID 1070)
T1 sequence (Q07440 whole entry): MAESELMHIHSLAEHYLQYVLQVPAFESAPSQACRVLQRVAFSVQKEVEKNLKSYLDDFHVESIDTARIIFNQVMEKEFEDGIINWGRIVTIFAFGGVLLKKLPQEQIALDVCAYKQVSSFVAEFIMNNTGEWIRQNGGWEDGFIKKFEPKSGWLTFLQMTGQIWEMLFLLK

Bcl-2-related protein A1 [2] = target: T1, Bcl-2-related protein A1; assay: Bfl-1 inhibitors blocking BH3 peptide binding, confirmation, biochemical, TR-FRET, mouse Bfl-1 (AID 621);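 also: TR-FRET binding of GST-Bfl-1 to FITC-labelled Bid peptide via terbium antibody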
[3] = target: Peroxisome proliferator-activated receptor gamma/Nuclear receptor coactivator 3 (Homo sapiens, UniProt P37231); assay: (§1) TR-FRET dose response biochemical High Throughput Screening assay for agonists of the steroid receptor coactivator 3 (SRC-3) recruitment by the peroxisome proliferator-activated receptor gamma (PPAR gamma): non-selective agonists. [Related pubchem assays: 1301 (Confirmation screen.), 1048 (Primary screen.)]; type: functional
Cysteine protease ATG4B = Cysteine protease ATG4B (Homo sapiens, UniProt Q9Y4P1); type: functional;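 also: Fluorescence-based dose-response confirmation assay measuring inhibition of ATG4B activity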
[4] = target: Peroxisome proliferator-activated receptor gamma/Nuclear receptor coactivator 1 (Homo sapiens, UniProt P37231); assay: as §1, with “1 (SRC-1)” for “3 (SRC-3)”, “assays (depositor defined):AID1300, AID1808, AID504735, AID631]” for “assays: 1301 (Confirmation screen.), 1048 (Primary screen.)]”; type: protein assay
[5] = target: Peroxisome proliferator-activated receptor gamma/Nuclear receptor coactivator 2 (Homo sapiens, UniProt P37231); assay: TR-FRET dose response biochemical High Throughput Screening assay for agonists of the steroid receptor coactivator 2 (SRC-2) recruitment by the peroxisome proliferator-activated receptor gamma (PPAR gamma): non-selective agonists. [Related pubchem assays: 1297, 1032 ]; type: functional
NS3 = NS3 (Hepatitis C virus, UniProt A3EZJ3); assay: PubChem AID 2173; set-up: species or system Hepacivirus hominis
Phospholipase A2 = Phospholipase A2 (Homo sapiens, UniProt P04054); type: functional;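 also: confirmatory dose-response counterscreen on phospholipase A2, testing hits that came from an ultra-high-throughput screen for ATG4B inhibitors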
[6] = target: DNA (cytosine-5)-methyltransferase 1 (Homo sapiens, UniProt P26358); assay: DNMT1 methyltransferase inhibitors, confirmation, biochemical, fluorescent molecular beacon (AID 602386); type: functional
[7] = Luminescence Cell-Based Dose Confirmation HTS to Identify Inhibitors of Polyadenylation.; type: functional
[8] = cytotoxicity in HPDE-C7 cells, cell-based, fluorescence, HTS (AID 430); type: functional; conditions: Homo sapiens
[9] = growth suppression of beta-catenin-knockout colon cells, dose response, cell-based, HCT116, human colon tumor (AID 1045); type: functional;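 also: HCT116 colon tumor cells with beta catenin knocked out; cells exposed to compound for 60 hours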
[10] = growth suppression of PTEN-null colon cells, dose response, cell-based, HCT116 PTEN knockout (AID 1047); type: functional;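 also: HCT116 colon tumor cells with PTEN knocked out; cells exposed to compound for 60 hours before readout; potency for loss of cell viability measured by luminescence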
[11] = target: FAD-linked sulfhydryl oxidase ALR (Homo sapiens, UniProt P55789); assay: inhibitors of human ALR sulfhydryl oxidase, dose response, biochemical, H2O2 detection, luminescence, cherry-pick (AID 493248)
[12] = cytotoxicity in KRAS-transformed pancreatic duct cells, primary screen, cell-based, fluorescence, HTS (AID 431); type: functional; conditions: Homo sapiens;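 also: cell line used: HPDE-C7K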
[13] = system: Streptococcus sp. 'group A'; assay: growth inhibition of control SK(-) GAS strain, dose response, counter-screen for streptokinase expression inhibitor project, luminescence, kanamycin, BacTiterGlo, confirmation (AID 1900); type: functional, organism-based
Streptokinase A = target: T2, Streptokinase A (Streptococcus pyogenes serotype M1, UniProt P10520); assay: S. pyogenes streptokinase expression inhibitors, potency, dose response, plasminogen activation absorbance, OD405 (AID 1914); type: functional, Streptococcus pyogenes M1 GAS;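 also: secreted streptokinase activity via plasminogen activation per viability signal from cell pellet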
T2 sequence (P10520 whole entry): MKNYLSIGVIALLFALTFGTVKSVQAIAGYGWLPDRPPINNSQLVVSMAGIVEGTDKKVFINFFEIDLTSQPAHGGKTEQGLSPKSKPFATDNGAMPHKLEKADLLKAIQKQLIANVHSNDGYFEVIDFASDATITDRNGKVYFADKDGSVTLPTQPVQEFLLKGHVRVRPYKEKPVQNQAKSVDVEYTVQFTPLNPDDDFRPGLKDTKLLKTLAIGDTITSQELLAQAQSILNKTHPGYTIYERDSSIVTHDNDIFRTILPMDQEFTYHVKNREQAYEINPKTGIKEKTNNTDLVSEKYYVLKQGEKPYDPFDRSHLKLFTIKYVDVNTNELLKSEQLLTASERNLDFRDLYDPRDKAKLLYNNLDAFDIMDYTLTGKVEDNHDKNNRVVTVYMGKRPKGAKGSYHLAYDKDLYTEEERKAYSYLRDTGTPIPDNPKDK

cells [14] = type: functional, cell-based
BJ = assay: cytotoxicity toward Ras-transformed BJeLR fibroblasts, dose response, cell-based, alamar blue fluorescence, cherrypicked samples (AID 2631); type: functional; conditions: Homo sapiens;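 also: confirmatory dose-response assay in RAS-dependent BJ fibroblasts engineered with TERT, LT and ST, with cytotoxicity read by fluorescence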
cells [15] = type: functional, cell-based; remark: listed apart in the source
HEK293 = assay: Fluorescence-based counterscreen for potentiators or agonists of NPY-Y2: cell-based high-throughput dose response assay to identify inhibitors of cyclic nucleotide gated ion channel (CNGC) activity. In this assay, the parental HEK293 cell line transfected with a cyclic-nucleotide gated ion channel (CNGC)-based cAMP sensor is used to measure inhibition of isoproterenol-induced CNGC activity by test compound.; type: functional; conditions: Homo sapiens;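 also: stimulus is 1 µM isoproterenol at EC100 plus PDE inhibitor Ro 20-1724 at 25 µM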
INS1 = assay: beta cell apoptosis inhibitors, cytokine rescue, dose response, luminescence, retest (AID 449756); type: functional, cell-based; conditions: Rattus norvegicus;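 also: cell death triggered by IL-1 beta plus TNF-alpha plus IFN-gamma mixture; protective hits raise ATP signal compared with cytokine alone wells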
Streptococcus = assay: Group A Streptococcus viability loss, dose response, counter-screen for streptokinase expression inhibitor project, luminescence, BacTiterGlo (AID 1915); type: functional, organism-based;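 also: potency for reduction of bacterial viability or growth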
[16] = target: Neuropeptide Y receptor type 1 (Homo sapiens, UniProt P25929); assay: Fluorescence-based counterscreen for agonists of NPY-Y2: cell-based high-throughput dose response assay for agonists of NPY-Y1.; type: functional
[17] = target: Neuropeptide Y receptor type 2 (Homo sapiens, UniProt P49146); assay: Fluorescence-based cell-based high-throughput dose response assay for agonists of NPY-Y2. [Related pubchem assays: 1703 (Screening assay (CNGC inhibitors).), 1359 (Screening assay (NPY-Y2 potentiators or agonists).), 1304 (Screening assay (NPY-Y1 potentiators or agonists).), 1710 (Screening assay (NPY-Y2 agonists).), 1791 (Summary AID.)]; type: functional
[18] = target: T3, DNA repair protein RAD52 homolog (Homo sapiens, UniProt P43351); type: functional, biochemical
T3 sequence (P43351 whole entry): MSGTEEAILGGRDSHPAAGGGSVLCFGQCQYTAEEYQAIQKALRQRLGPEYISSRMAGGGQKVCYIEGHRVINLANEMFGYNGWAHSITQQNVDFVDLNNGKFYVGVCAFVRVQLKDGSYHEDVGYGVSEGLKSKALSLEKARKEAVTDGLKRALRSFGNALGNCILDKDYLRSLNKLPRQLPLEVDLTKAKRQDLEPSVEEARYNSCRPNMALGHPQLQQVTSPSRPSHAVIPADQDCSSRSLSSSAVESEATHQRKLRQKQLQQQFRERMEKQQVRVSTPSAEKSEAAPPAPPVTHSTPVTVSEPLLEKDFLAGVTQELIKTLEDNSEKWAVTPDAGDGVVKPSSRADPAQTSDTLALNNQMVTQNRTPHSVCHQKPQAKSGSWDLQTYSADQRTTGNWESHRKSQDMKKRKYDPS

Sequence of Phospholipase A2 (P04054 whole entry): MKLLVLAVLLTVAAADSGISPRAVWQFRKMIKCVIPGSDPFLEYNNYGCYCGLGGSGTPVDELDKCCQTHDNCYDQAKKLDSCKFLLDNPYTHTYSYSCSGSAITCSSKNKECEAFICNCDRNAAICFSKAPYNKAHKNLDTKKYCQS
Sequence of FAD-linked sulfhydryl oxidase ALR (P55789 whole entry): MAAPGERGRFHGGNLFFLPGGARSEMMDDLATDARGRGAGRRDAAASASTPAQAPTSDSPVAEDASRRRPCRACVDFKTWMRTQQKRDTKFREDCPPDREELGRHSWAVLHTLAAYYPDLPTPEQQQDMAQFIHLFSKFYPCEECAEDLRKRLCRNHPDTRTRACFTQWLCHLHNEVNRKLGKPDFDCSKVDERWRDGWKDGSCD
Sequence of DNA (cytosine-5)-methyltransferase 1 (P26358 whole entry): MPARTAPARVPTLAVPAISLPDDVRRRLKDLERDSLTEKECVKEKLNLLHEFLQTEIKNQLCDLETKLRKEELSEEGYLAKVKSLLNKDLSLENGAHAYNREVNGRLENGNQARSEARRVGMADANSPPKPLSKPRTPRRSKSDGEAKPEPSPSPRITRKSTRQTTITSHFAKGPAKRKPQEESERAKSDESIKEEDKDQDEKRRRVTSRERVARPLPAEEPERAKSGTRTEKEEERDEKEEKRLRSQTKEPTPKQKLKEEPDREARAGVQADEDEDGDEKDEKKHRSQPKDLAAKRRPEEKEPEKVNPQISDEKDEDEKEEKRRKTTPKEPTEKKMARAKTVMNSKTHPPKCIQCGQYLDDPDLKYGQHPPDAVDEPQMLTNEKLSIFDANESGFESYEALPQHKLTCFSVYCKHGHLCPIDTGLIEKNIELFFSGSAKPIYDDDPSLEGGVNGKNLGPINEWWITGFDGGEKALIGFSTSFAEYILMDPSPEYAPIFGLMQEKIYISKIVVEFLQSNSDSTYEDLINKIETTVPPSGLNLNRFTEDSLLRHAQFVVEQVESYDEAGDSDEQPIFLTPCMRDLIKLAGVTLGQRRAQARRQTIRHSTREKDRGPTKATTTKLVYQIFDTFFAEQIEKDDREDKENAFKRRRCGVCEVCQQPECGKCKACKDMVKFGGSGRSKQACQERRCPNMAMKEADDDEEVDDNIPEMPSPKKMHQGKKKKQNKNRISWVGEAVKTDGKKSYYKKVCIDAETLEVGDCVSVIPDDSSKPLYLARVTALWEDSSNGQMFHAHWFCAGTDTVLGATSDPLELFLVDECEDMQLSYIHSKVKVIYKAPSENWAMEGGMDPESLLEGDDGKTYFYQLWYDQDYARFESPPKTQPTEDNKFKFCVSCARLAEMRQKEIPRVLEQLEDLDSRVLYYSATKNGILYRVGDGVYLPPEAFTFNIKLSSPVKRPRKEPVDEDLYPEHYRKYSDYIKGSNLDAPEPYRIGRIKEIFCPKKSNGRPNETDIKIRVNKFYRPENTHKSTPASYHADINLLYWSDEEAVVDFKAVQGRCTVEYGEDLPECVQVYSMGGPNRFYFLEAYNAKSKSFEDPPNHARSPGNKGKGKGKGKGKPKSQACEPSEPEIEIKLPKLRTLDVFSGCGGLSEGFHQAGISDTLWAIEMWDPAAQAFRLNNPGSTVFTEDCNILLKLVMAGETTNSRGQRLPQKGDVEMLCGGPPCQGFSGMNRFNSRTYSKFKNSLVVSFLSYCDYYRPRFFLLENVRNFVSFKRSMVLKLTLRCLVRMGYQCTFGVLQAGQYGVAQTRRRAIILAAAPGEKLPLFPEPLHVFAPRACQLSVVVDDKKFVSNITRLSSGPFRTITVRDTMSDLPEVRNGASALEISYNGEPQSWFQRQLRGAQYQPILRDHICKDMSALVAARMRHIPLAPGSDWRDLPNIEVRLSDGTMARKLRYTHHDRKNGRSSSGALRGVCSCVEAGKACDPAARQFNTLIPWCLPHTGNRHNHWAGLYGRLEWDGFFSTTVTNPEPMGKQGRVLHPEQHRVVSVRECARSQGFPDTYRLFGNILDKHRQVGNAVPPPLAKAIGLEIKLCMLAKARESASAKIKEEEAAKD
Sequence of NS3 (A3EZJ3 whole entry): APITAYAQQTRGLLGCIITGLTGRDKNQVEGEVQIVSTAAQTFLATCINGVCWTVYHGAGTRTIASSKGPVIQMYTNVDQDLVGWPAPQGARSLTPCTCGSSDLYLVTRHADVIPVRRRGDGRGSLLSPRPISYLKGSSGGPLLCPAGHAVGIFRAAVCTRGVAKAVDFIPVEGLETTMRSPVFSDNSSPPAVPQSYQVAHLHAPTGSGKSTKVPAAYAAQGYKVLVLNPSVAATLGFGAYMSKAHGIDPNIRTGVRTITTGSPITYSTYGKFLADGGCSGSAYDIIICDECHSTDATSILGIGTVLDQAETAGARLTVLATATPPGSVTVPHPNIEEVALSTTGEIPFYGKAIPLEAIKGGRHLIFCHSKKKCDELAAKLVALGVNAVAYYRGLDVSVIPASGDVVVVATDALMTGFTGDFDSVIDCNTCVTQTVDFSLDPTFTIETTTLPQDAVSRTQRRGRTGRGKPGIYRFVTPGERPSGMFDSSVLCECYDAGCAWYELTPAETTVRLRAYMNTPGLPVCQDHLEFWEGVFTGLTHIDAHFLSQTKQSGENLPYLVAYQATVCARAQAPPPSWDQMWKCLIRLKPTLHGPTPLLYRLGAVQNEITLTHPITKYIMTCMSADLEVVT
Sequence of Peroxisome proliferator-activated receptor gamma/Nuclear receptor coactivator 3 (P37231 whole entry): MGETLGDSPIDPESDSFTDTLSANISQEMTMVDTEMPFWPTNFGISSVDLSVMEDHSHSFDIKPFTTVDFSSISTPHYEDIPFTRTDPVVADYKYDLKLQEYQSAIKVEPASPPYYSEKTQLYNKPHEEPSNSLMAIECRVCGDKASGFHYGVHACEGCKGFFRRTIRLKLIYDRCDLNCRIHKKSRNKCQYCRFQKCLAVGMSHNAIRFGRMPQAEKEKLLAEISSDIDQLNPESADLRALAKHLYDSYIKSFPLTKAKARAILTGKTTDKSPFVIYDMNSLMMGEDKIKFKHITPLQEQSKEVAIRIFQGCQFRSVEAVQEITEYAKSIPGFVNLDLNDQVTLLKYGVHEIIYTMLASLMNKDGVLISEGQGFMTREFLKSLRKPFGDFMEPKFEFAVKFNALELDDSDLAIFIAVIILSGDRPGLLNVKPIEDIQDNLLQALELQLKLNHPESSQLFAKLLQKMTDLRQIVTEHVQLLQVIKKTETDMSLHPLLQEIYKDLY
Sequence of Peroxisome proliferator-activated receptor gamma/Nuclear receptor coactivator 3 (Q9Y6Q9 whole entry, further chain): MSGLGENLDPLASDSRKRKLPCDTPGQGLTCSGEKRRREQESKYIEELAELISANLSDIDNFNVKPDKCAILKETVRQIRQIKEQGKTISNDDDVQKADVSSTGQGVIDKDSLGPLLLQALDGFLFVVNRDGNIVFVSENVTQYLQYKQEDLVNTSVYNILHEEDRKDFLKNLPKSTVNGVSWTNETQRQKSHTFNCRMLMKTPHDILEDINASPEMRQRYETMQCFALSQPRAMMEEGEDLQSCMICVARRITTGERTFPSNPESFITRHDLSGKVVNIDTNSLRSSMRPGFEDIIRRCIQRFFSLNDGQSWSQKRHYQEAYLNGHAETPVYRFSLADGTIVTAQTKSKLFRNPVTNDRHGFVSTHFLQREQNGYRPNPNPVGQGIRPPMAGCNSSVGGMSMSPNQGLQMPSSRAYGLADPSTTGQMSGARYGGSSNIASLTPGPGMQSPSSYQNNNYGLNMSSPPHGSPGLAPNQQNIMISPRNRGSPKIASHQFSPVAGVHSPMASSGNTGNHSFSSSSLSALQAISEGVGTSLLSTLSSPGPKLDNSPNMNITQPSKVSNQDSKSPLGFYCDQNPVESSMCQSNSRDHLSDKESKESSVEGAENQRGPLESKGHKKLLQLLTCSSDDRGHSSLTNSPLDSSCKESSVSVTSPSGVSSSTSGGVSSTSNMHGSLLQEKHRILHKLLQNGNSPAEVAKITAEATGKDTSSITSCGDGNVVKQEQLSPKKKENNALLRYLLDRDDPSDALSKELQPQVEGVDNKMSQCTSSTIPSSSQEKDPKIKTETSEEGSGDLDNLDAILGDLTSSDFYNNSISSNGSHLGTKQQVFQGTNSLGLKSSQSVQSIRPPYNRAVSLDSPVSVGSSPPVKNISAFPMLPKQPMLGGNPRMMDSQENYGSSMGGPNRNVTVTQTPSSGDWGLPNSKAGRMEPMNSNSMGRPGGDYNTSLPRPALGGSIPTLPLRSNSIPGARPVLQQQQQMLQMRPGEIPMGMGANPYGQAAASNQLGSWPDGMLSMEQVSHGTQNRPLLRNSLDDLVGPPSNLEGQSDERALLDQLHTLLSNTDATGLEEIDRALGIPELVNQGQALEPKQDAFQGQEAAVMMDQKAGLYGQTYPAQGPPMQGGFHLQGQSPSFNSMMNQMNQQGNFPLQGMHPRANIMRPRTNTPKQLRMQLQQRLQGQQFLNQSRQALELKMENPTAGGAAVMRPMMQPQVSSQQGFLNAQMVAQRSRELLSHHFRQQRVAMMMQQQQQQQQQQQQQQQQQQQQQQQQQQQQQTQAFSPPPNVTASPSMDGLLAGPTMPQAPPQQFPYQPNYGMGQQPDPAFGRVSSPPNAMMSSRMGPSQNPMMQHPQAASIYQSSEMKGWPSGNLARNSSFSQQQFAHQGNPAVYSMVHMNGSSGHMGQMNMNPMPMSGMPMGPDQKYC
Sequence of Neuropeptide Y receptor type 2 (P49146 whole entry): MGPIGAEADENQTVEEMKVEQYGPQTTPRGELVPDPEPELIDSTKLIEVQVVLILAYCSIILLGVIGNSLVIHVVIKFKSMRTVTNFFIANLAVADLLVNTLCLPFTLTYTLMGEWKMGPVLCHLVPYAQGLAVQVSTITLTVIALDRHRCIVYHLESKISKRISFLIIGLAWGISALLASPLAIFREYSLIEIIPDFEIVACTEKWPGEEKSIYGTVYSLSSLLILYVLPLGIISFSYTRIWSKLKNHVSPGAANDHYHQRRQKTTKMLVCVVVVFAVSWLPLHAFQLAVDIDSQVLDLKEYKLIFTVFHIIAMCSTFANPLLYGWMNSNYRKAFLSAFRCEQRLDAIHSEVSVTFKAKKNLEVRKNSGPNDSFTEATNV

C[C@@H]1CN(C2=C(Cl)C(=O)N(c3ccc(Cl)c(Cl)c3)C2=O)CCN1
IC50 (Bcl-2-related protein A1 [1]): 1.16 µM (active)
IC50 (Bcl-2-related protein A1 [2]): 1.03 µM (active)

O=C1NN(c2ccccc2)C(=O)/C1=C/c1ccc(Sc2cccc3ccccc23)o1
EC50 [3]: > 79.4 µM (not active)
IC50 (Cysteine protease ATG4B): 8.56 µM (active)
EC50 [4]: > 79.4 µM (inactive)
EC50 [5]: 92.2 µM (not active)
IC50 (NS3): 5.55 µM (active)
IC50 (Phospholipase A2): 8.08 µM (active)
IC50 [6]: 7.12 µM (active)

O=C(O)c1ccc(SCc2cnc(Cl)s2)cc1
EC50 [7]: > 120 µM (not active)

CCN(CCNC(=O)C1CCN(Cc2nc(-c3cccc(Cl)c3)oc2C)CC1)c1ccccc1
EC50 [8]: > 20 µM (not active)
EC50 [9]: 10.7 µM (active)
EC50 [10]: 13.3 µM (active)
AC50 [11]: 0.024 µM (active)
EC50 [12]: > 20 µM (not active)

Cc1sc2cc3c(c(C(=O)c4ccccc4)[n+]2c1C)-c1cccc2cccc-3c12
EC50 [13]: 6.52 µM (active)
EC50 (Streptokinase A): 31.9 µM (active)
EC50 (cells [14]): > 350 µM (not active)
EC50 (BJ): 30.6 µM (active)
EC50 (cells [15]): > 350 µM (not active)
EC50 (HEK293): 12.3 µM (not active)
AC50 (INS1): 1.91 µM (active)
EC50 (Streptococcus): 23.5 µM (active)
EC50 [16]: 8.19 µM (active)
EC50 [17]: 11.5 µM (not active)
AC50 [18]: 1.43 µM (active)
